Here are results for six compounds from patent publication US20220204512A1, “SUBSTITUTED FUSED BICYCLIC DERIVATIVE, PREPARATION METHOD THEREFOR, AND APPLICATION THEREOF IN MEDICINES” (Jiangsu Hengrui Medicine Co., Ltd., priority 2019, published 2022).

The test system of one data set is Colo205 cells. Put plainly: In vitro proliferation inhibition test on Colo205 tumor cells (CellTiter-Glo). To be noted: Homo sapiens, COLO 205, 72 h; Colo205 cell proliferation, 3 days of culture, CTG. In kind it is cell-based. The protocol: The purpose of this experiment is to test the inhibitory activity of the compounds of the present disclosure on the proliferation of Colo205 cells (CCL-222, ATCC) in vitro. The cells were treated in vitro with different concentrations of the compounds. After 3 days of culture, the cell proliferation was tested with CTG (CellTiter-Glo® Luminescent Cell Viability Assay, Promega, Catalog No. G7573) reagent, and the in vitro activity of the compounds was evaluated according to the ICso value.
In the following, the in vitro proliferation inhibition test method of Colo205 cells is taken as an example to illustrate the method for testing the in vitro proliferation inhibitory activity of the compounds of the present disclosure on tumor cells. This method is also applicable to, but not limited to, the in vitro proliferation inhibitory activity test on other tumor cells.
Colo205 cells were digested, centrifuged and then resuspended. The single cell suspension was mixed well, and the density of viable cells was adjusted to 5.0×10^4 cells/ml with cell culture medium (RPMI1640+2% FBS), and 95 μL/well was added to a 96-well cell culture plate. Only 100 μL medium was added to the peripheral wells of the 96-well plate. The culture plate was incubated in an incubator for 24 hours (37° C., 5% CO2).
The compound was dissolved in DMSO (dimethyl sulfoxide, Shanghai Titan Scientific Co., Ltd.) and prepared as a stock solution with an initial concentration of 20 mM. The initial concentration of the small molecule compound was 2 mM, and then 4-fold diluted into 9 points, and the 10th point was DMSO. Another 96-well plate was taken, and 90 μL of cell culture medium (RPMI1640+2% FBS) was added to each well. Then 10 μL of different concentrations of the test sample was added to each well. The mixture was mixed well, and then 5μL of different concentrations of the test sample was added to the cell culture plate. Each sample has two duplicate holes. The culture plate was incubated in the incubator for 3 days (37° C., 5% CO2). The 96-well cell culture plate was taken out. 50 μL solution of CTG was added to each well, and the plate was incubated for 10 minutes at room temperature. In a microplate reader (BMG labtech, PHERAstar FS), chemiluminescence was measured with the microplate reader.
(§1) Microsoft Excel, Graphpad Prism 5 was used to process and analyze the data.
(In general: In ATP-based viability assays light output follows the ATP content of the culture.)

Data set [1] can be described thus: Pharmacokinetics assay in mice. In kind it is in vivo. To be noted: female, mouse, po, C57 mice, intragastric, 2 mg/kg, plasma; for Vd/F: read-out: Apparent distribution volume Vz/F; for AUC: read-out: Area under curve AUC; for CL/F: read-out: Clearance CLz/F; for half-life: read-out: Half-life T1/2 (converted); for Cmax: read-out: Plasma concentration Cmax; for MRT: read-out: Residence time MRT. The protocol:
Mice were used as test animals. The drug concentration in plasma at different time points was determined by LC/MS/MS method after administration of the compounds 1-P2, 2-P2, 4-P2, 6-P2, 9-P2, 10-P2 and 11-P2. The pharmacokinetic behavior of the compounds of the present disclosure was studied and evaluated in mice.
Sixty-three C57 mice (female, equally divided into seven groups) were purchased from Shanghai Jiesijie Laboratory Animal Co., LTD. (Certificate No.: SCXK(Shanghai)2013-0006).
A certain amount of the test compound was weighed, dissolved in 5% of DMSO by volume and 5% of tween 80, followed by the additon of 90% of normal saline to prepare a 0.1 mg/mL colorless, clear and transparent solution.
After an overnight fast, C57 mice were intragastrically administered the test compound at an administration dose of 2 mg/kg and an administration volume of 0.2 ml/10 g.
The mice were intragastrically administered the test compounds. 0.1 ml of blood was taken before the administration and at 0.25, 0.5, 1.0, 2.0, 4.0, 6.0, 8.0, 11.0 and 24.0 hours after the administration. The samples were stored in heparinized tubes, and centrifuged for 10 minutes at 3500 rpm to separate the blood plasma. The plasma samples were stored at −20° C.
The content of the test compound in the plasma of mice after intragastrical administration of the test compound at different concentrations was determined: 25 μL of […] plasma at each time point after the administration was taken, followed by the addition of 50 μL of the internal standard camptothecin solution (100ng/mL) and 200 μL of acetonitrile. The resulting solution was vortex-mixed for 5 minutes, and centrifuged for 10 minutes (4000 rpm). 4 μL of the supernatant was taken from the plasma samples for LC/MS/MS analysis.

The next data set deals with T1, ERK1 (Homo sapiens, UniProt P27361).
T1 construct: purchased R&D 1879-KS-010
T1 sequence (P27361 whole entry): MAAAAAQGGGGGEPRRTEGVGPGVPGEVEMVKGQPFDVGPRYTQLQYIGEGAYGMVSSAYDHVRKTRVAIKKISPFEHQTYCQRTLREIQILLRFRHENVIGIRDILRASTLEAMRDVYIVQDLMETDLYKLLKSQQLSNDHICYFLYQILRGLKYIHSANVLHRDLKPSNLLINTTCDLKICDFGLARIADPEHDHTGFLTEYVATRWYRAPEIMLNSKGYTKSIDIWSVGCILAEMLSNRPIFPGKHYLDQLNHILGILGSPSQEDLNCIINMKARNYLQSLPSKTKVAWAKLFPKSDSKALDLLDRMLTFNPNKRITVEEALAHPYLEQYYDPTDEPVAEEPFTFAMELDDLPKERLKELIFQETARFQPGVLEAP
Description: ERK1 enzyme activity test (ADP-Glo Kinase Assay). In kind it is biochemical. To be noted: ADP-Glo chemiluminescence. The protocol:
(§2) The purpose of this experiment is to detect the inhibitory ability of the compounds of the present disclosure on the ERK1 enzyme activity and to evaluate the in vitro activity of the compounds based on the IC50. The ADP-Glo™ Kinase Assay Kit was used in this experiment. The substrate was phosphorylated under the action of the enzyme and ADP was produced at the same time. The ADP-Glo reagent was added to remove the unreacted ATP in the reaction system, and the ADP produced by the reaction was detected with kinase detection reagent. In the presence of the compound, the inhibition rate of the compound was calculated by measuring the signal value.
Preparation of Enzyme and substrate: ERK1 (1879-KS-010, R&D) and substrate (AS-61777, anaspec) were prepared to 0.75 ng/p1 and 100 μM respectively in a buffer, and then the enzyme solution and the substrate solution were prepared into a mixed solution at a volume ratio of 2:1 for later use. ATP was diluted to 300 μM with buffer. The compound was dissolved in DMSO (dimethyl sulfoxide, Shanghai Titan Scientific Co., Ltd.) to prepare a stock solution with an initial concentration of 20 mM, and then Bravo was used to prepare the compound. Finally, 3 μL of a mixed solution of enzyme and substrate, and 1 μL of different concentrations of the compound (the initial concentration was 50 μM, 4-fold dilution) were added to each well of the 384-well plate, and the plate was incubated at 30° C. for 10 minutes, and finally 1 μL of 300 μM ATP solution was added to each well, and the plate was incubated at 30° C. for 2 hours. Then 5 μL of ADP-Glo was added, and the plate was incubated at 30° C. for 40 minutes. Then 10 μL of kinase detection buffer was added, and the plate was incubated at 30° C. for 40 minutes. The 384-well plate was taken out and placed in a microplate reader (BMG labtech, PHERAstar FS), and the chemiluminescence was measured by a microplate reader.
as §1

The next data set addresses T2, ERK2 (Homo sapiens, UniProt P28482).
T2 construct: purchased R&D 1879-KS-010
Description: ERK2 enzyme activity test (ADP-Glo Kinase Assay). The format is biochemical. To be noted: ADP-Glo chemiluminescence. Here is the method:
as §2, with “the ERK2” for “the ERK1”, “enzyme activity,” for “enzyme activity”
Preparation of enzyme and substrate: ERK2 (1879-KS-010, R&D) and substrate (custom peptide, Gill Biochemical) were prepared to 0.75 ng/ml and 1500 μM in a buffer (40 mM Tris, 20 mM MgCl2, 0.1 mg/ml BSA, 50 μM DTT), and then the enzyme solution and the substrate solution were prepared into a mixed solution at a volume ratio of 2:1 for later use. ATP was diluted to 500 μM with buffer. The compound was dissolved in DMSO (dimethyl sulfoxide, Shanghai Titan Scientific Co., Ltd.) to prepare a stock solution with an initial concentration of 20 mM, and then Bravo was used to prepare the compound. Finally, 3 μL of a mixed solution of enzyme and substrate, and 1 μL substrate of different concentrations of the compound (the initial concentration is 50 μM, 4-fold dilution) were added to each well of the 384-well plate, and the plate was incubated at 30° C. for 10 minutes, and finally 1 μL 500 μM ATP solution was added to each well, and the plate was incubated at 30° C. for 2 hours. Then 5 μL of ADP-Glo was added, and the plate was incubated at 30° C. for 40 minutes. Then 10 μL of kinase detection buffer was added, and the plate was incubated at 30° C. for 40 minutes. The 384-well plate was taken out and placed in a microplate reader (BMG labtech, PHERAstar FS), and the chemiluminescence was measured by a microplate reader.
as §1
On the technique in general: In ADP-Glo the light output rises with the ADP produced.

pIC50: −log10 of the molar value.

T2 sequence (P28482 2-360 limits assumed): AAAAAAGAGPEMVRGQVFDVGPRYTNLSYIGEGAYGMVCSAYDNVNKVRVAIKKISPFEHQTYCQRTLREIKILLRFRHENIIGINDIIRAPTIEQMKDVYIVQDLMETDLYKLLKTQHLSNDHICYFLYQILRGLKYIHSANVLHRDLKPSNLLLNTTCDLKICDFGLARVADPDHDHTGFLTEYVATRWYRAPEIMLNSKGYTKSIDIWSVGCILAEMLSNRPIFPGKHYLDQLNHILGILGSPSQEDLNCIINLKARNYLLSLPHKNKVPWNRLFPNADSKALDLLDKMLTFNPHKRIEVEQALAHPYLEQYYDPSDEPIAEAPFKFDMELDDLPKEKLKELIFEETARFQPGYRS

For orientation: pIC50 means −log10 of the IC50, conventionally taken in molar units. Broadly, the AUC is the area under the concentration-time curve, a measure of exposure. Broadly, the MRT is the average time that molecules of a dose stay in the body. `COc1cc(F)cc([C@@H](CO)NC(=O)[C@@H](C)N2CCc3cc(-c4nc(Nc5ccnn5C)ncc4C)cn3C2=O)c1` [Example 1-P2, (R)-N-((S)-1-(3-Fluoro-5-methoxyphenyl)-2-hydroxyethyl)-2-(6-(5-methyl-2-((1-methyl-1H-pyrazol-5-yl)amino)pyrimidin-4-yl)-1-oxo-3,4-dihydropyrrolo[1,2-c]pyrimidin-2(1H)-yl)propanamide] gave a pIC50 in the data set on Colo205 cells of 7.76. In data set [1], the Vd/F was 3.75 L/kg, the AUC is 1110 ng·h/mL, the CL/F stood at 29.7 mL/min/kg and the half-life was 1.46 h. Besides, in data set [1], the Cmax is 501 ng/mL and the MRT amounted to 1.84 h. Further, the pIC50 at ERK1 was 8.15. At ERK2, this compound showed a pIC50 of 8.82.

`COc1cc(F)cc([C@@H](CO)NC(=O)[C@@H](C)N2CCc3cc(-c4nc(NC5CCOCC5)ncc4Cl)cn3C2=O)c1` [Example 2-P2, (R)-2-(6-(5-Chloro-2-((tetrahydro-2H-pyran-4-yl)amino)pyrimidin-4-yl)-1-oxo-3,4-dihydropyrrolo[1,2-c]pyrimidin-2(1H)-yl)-N-((S)-1-(3-fluoro-5-methoxyphenyl)-2-hydroxyethyl)propanamide] showed a pIC50 in the data set on Colo205 cells of 7.82. Further, in data set [1], the Vd/F turned out to be 5.94 L/kg, the AUC came out at 994 ng·h/mL, the CL/F was 33.5 mL/min/kg and the half-life was 2.05 h. Besides, in data set [1], the Cmax was determined as 867 ng/mL and the mean residence time (MRT) amounted to 1.08 h. The same compound showed a pIC50 at ERK1 of 8.34. For the same compound, the pIC50 against ERK2 was 8.77.

For the compound `COc1cc(F)cc([C@@H](CO)NC(=O)[C@@H](C)N2CCn3cc(-c4nc(NC5CCOCC5)ncc4Cl)nc3C2=O)c1` [Example 3-P2, (R)-2-(2-(5-Chloro-2-((tetrahydro-2H-pyran-4-yl)amino)pyrimidin-4-yl)-8-oxo-5,6-dihydroimidazo[1,2-a]pyrazin-7(8H)-yl)-N-((S)-1-(3-fluoro-5-methoxyphenyl)-2-hydroxyethyl)propanamide], the values for the pIC50 on ERK1 and at ERK2 were 8.34 and 8.76, respectively.

For `Cc1cccc([C@@H](CO)NC(=O)[C@@H](C)N2CCn3cc(-c4nc(Nc5ccnn5C)ncc4C)cc3C2=O)c1` [Example 10-P2, (R)-N-((S)-2-Hydroxy-1-(m-tolyl)ethyl)-2-(7-(5-methyl-2-((1-methyl-1H-pyrazol-5-yl)amino)pyrimidin-4-yl)-1-oxo-3,4-dihydropyrrolo[1,2-a]pyrazin-2(1H)-yl)propanamide], the figures for the pIC50 in the data set on Colo205 cells, at ERK1 and at ERK2 were 7.00, 8.07 and 8.96, respectively.

Take `COc1cc(F)cc([C@@H](CO)NC(=O)[C@@H](C)N2CCn3cc(-c4nc(Nc5ccnn5C)ncc4C)cc3C2=O)c1` [Example 12-P2, (R)-N-((S)-1-(3-Fluoro-5-methoxyphenyl)-2-hydroxyethyl)-2-(7-(5-methyl-2-((1-methyl-1H-pyrazol-5-yl)amino)pyrimidin-4-yl)-1-oxo-3,4-dihydropyrrolo[1,2-a]pyrazin-2(1H)-yl)propanamide]: the results for the pIC50 with Colo205 cells, on ERK1 and at ERK2 were 7.09, 8.03 and 9.05, respectively.

As to `COc1cc(F)cc([C@@H](CO)NC(=O)[C@@H](C)N2CCn3cc(-c4nc(NC5CCOCC5)ncc4C)cc3C2=O)c1` [Example 17-P2, (R)-N-((S)-1-(3-Fluoro-5-methoxyphenyl)-2-hydroxyethyl)-2-(7-(5-methyl-2-((tetrahydro-2H-pyran-4-yl)amino)pyrimidin-4-yl)-1-oxo-3,4-dihydropyrrolo[1,2-a]pyrazin-2(1H)-yl)propanamide], the pIC50 is 7.42 with Colo205 cells, 7.66 on ERK1 and 8.51 at ERK2.
